Values quoted from earlier work as cited in PMC9516332 (Frontiers in Oncology, 2022).
Read-outs that look alike come from different tables or passages of the source.

How the values were obtained:
Conditions in all cases: cited from earlier work
[1] = target: panel of 255 wild-type kinases (Homo sapiens, UniProt Q13557)
[2] = target: T1, panel of 255 wild-type kinases (Homo sapiens, UniProt Q15139)
T1 sequence (Q15139 1-912): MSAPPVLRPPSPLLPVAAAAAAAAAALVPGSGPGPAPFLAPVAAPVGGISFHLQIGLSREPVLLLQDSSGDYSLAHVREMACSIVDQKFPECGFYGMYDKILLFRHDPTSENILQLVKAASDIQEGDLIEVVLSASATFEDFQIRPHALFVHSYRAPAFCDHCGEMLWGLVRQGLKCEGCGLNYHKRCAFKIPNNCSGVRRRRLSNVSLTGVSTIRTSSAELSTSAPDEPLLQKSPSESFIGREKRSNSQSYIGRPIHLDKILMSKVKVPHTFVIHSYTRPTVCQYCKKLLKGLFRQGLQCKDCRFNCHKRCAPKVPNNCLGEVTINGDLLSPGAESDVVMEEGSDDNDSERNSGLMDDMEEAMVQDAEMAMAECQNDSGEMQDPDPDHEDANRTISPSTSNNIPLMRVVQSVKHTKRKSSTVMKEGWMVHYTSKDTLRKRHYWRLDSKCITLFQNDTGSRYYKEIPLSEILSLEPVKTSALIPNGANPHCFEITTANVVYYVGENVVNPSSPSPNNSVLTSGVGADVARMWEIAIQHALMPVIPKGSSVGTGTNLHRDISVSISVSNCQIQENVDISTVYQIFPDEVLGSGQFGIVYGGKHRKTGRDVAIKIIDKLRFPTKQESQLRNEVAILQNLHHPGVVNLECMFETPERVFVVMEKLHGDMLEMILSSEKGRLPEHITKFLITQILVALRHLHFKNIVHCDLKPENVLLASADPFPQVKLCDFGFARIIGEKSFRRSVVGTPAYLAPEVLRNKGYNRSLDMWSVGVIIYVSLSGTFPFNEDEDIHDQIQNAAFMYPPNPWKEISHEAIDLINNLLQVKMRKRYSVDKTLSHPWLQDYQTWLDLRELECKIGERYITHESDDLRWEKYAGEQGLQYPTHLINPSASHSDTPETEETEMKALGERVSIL

[3] = target: panel of 255 wild-type kinases (Homo sapiens, UniProt Q08345)
[4] = target: panel of 255 wild-type kinases (Homo sapiens, UniProt P09619)
[5] = target: panel of 255 wild-type kinases (Homo sapiens, UniProt Q04912)
[6] = target: panel of 255 wild-type kinases (Homo sapiens, UniProt P68400)
[7] = target: panel of 255 wild-type kinases (Homo sapiens, UniProt Q00535)
[8] = target: panel of 255 wild-type kinases (Homo sapiens, UniProt P14616)
[9] = target: panel of 255 wild-type kinases (Homo sapiens, UniProt Q96GD4)
[10] = target: panel of 255 wild-type kinases (Homo sapiens, UniProt P24941)
[11] = target: panel of 255 wild-type kinases (Homo sapiens, UniProt P49840)
[12] = target: panel of 255 wild-type kinases (Homo sapiens, UniProt P05771)
[13] = target: panel of 255 wild-type kinases (Homo sapiens, UniProt Q8IU85)
[14] = target: panel of 255 wild-type kinases (Homo sapiens, UniProt O00311)
[15] = target: panel of 255 wild-type kinases (Homo sapiens, UniProt P07948)
[16] = CaMK2δ kinase assay, 1 µmol/L single concentration, ref DOI: 10.1158/1535-7163.MCT-18-0877
[17] = kinase PKD1, 1 µmol/L single concentration, ref DOI: 10.1158/1535-7163.MCT-18-0877
[18] = kinase DDR1, 1 µmol/L single concentration, ref DOI: 10.1158/1535-7163.MCT-18-0877
[19] = kinase PDGFRβ, 1 µmol/L single concentration, ref DOI: 10.1158/1535-7163.MCT-18-0877
[20] = kinase RON, 1 µmol/L single concentration, ref DOI: 10.1158/1535-7163.MCT-18-0877
[21] = kinase CK2α1/β, 1 µmol/L single concentration, ref DOI: 10.1158/1535-7163.MCT-18-0877
[22] = CDK5/p25 kinase assay, 1 µmol/L single concentration, ref DOI: 10.1158/1535-7163.MCT-18-0877
[23] = kinase IRR, 1 µmol/L single concentration, ref DOI: 10.1158/1535-7163.MCT-18-0877
[24] = AurB kinase assay, 1 µmol/L single concentration, ref DOI: 10.1158/1535-7163.MCT-18-0877
[25] = CDK2/CycA2 kinase assay, 1 µmol/L single concentration, ref DOI: 10.1158/1535-7163.MCT-18-0877
[26] = CDK2/CycE1 kinase assay, 1 µmol/L single concentration, ref DOI: 10.1158/1535-7163.MCT-18-0877
[27] = kinase GSK3α, 1 µmol/L single concentration, ref DOI: 10.1158/1535-7163.MCT-18-0877
[28] = kinase PKCβ1, 1 µmol/L single concentration, ref DOI: 10.1158/1535-7163.MCT-18-0877
[29] = CaMK1δ kinase assay, 1 µmol/L single concentration, ref DOI: 10.1158/1535-7163.MCT-18-0877
[30] = CDC7/ASK kinase assay, 1 µmol/L single concentration, ref DOI: 10.1158/1535-7163.MCT-18-0877
[31] = kinase LYNa, 1 µmol/L single concentration, ref DOI: 10.1158/1535-7163.MCT-18-0877

Structure (SMILES): CCc1cc2c(cc1N1CCC(N3CCOCC3)CC1)C(C)(C)c1[nH]c3cc(C#N)ccc3c1C2=O [alectinib]
- %-inhibition CaMK2δ [1, 16]: 37%
- %-inhibition at 1 µmol/L, PKD1 [2, 17]: 2%
- %-inhibition at 1 µmol/L, DDR1 [3, 18]: 16%
- %-inhibition at 1 µmol/L, PDGFRβ [4, 19]: 26%
- %-inhibition at 1 µmol/L, RON [5, 20]: 10%
- %-inhibition at 1 µmol/L, CK2α1/β [6, 21]: -3.18%
- %-inhibition CDK5/p25 [7, 22]: -12%
- %-inhibition at 1 µmol/L, IRR [8, 23]: 57%
- %-inhibition AurB [9, 24]: 9%
- %-inhibition CDK2/CycA2 [10, 25]: 5.68%
- %-inhibition CDK2/CycE1 [10, 26]: -2.55%
- %-inhibition at 1 µmol/L, GSK3α [11, 27]: 4.36%
- %-inhibition at 1 µmol/L, PKCβ1 [12, 28]: -1.89%
- %-inhibition CaMK1δ [13, 29]: -3.42%
- %-inhibition CDC7/ASK [14, 30]: -0.8%
- %-inhibition at 1 µmol/L, LYNa [15, 31]: 32%

Structure (SMILES): COc1cc(N2CCC(N3CCN(C)CC3)CC2)ccc1Nc1ncc(Cl)c(Nc2ccccc2P(C)(C)=O)n1 [brigatinib]
- %-inhibition CaMK2δ [1]: 101%
- %-inhibition at 1 µmol/L, PKD1 [2]: 74%
- %-inhibition at 1 µmol/L, DDR1 [3]: 84%
- %-inhibition at 1 µmol/L, PDGFRβ [4]: 94%
- %-inhibition at 1 µmol/L, RON [5]: 18%
- %-inhibition at 1 µmol/L, CK2α1/β [6]: 8.51%
- %-inhibition CDK5/p25 [7]: 40%
- %-inhibition at 1 µmol/L, IRR [8]: 99%
- %-inhibition AurB [9]: 46%
- %-inhibition CDK2/CycA2 [10]: 53%
- %-inhibition CDK2/CycE1 [10]: 30%
- %-inhibition at 1 µmol/L, GSK3α [11]: 4%
- %-inhibition at 1 µmol/L, PKCβ1 [12]: 7.42%
- %-inhibition CaMK1δ [13]: 62%
- %-inhibition CDC7/ASK [14]: 0.868%
- %-inhibition at 1 µmol/L, LYNa [15]: 51%

Structure (SMILES): Cc1cc(Nc2ncc(Cl)c(Nc3ccccc3S(=O)(=O)C(C)C)n2)c(OC(C)C)cc1C1CCNCC1 [ceritinib]
- %-inhibition CaMK2δ [1, 16]: 76%
- %-inhibition at 1 µmol/L, PKD1 [2, 17]: 27%
- %-inhibition at 1 µmol/L, DDR1 [3, 18]: 50%
- %-inhibition at 1 µmol/L, PDGFRβ [4, 19]: 55%
- %-inhibition at 1 µmol/L, RON [5, 20]: 9%
- %-inhibition at 1 µmol/L, CK2α1/β [6, 21]: -8%
- %-inhibition CDK5/p25 [7, 22]: -22%
- %-inhibition at 1 µmol/L, IRR [8, 23]: 102%
- %-inhibition AurB [9, 24]: 8%
- %-inhibition CDK2/CycA2 [10, 25]: -5.32%
- %-inhibition CDK2/CycE1 [10, 26]: -7.57%
- %-inhibition at 1 µmol/L, GSK3α [11, 27]: 15%
- %-inhibition at 1 µmol/L, PKCβ1 [12, 28]: 6.66%
- %-inhibition CaMK1δ [13, 29]: 48%
- %-inhibition CDC7/ASK [14, 30]: -2.74%
- %-inhibition at 1 µmol/L, LYNa [15, 31]: 16%

Structure (SMILES): O=C(c1ccc(F)c(F)c1Nc1ccc(I)cc1F)N1CC(O)([C@@H]2CCCCN2)C1 [cobimetinib]
- %-inhibition CaMK2δ [1, 16]: 1.1%
- %-inhibition at 1 µmol/L, PKD1 [2, 17]: -5%
- %-inhibition at 1 µmol/L, DDR1 [3, 18]: 6.37%
- %-inhibition at 1 µmol/L, PDGFRβ [4, 19]: 2%
- %-inhibition at 1 µmol/L, RON [5, 20]: -9%
- %-inhibition at 1 µmol/L, CK2α1/β [6, 21]: -9%
- %-inhibition CDK5/p25 [7, 22]: -7%
- %-inhibition at 1 µmol/L, IRR [8, 23]: -0.403%
- %-inhibition AurB [9, 24]: -11%
- %-inhibition CDK2/CycA2 [10, 25]: -8%
- %-inhibition CDK2/CycE1 [10, 26]: -8%
- %-inhibition at 1 µmol/L, GSK3α [11, 27]: 3.42%
- %-inhibition at 1 µmol/L, PKCβ1 [12, 28]: -4.35%
- %-inhibition CaMK1δ [13, 29]: 1%
- %-inhibition CDC7/ASK [14, 30]: 5%
- %-inhibition at 1 µmol/L, LYNa [15, 31]: -1.81%

Structure (SMILES): C=CC(=O)N1CCC[C@@H](n2nc(-c3ccc(Oc4ccccc4)cc3)c3c(N)ncnc32)C1 [ibrutinib]
- %-inhibition CaMK2δ [1, 16]: -0.826%
- %-inhibition at 1 µmol/L, PKD1 [2, 17]: 3.22%
- %-inhibition at 1 µmol/L, DDR1 [3, 18]: 37%
- %-inhibition at 1 µmol/L, PDGFRβ [4, 19]: 55%
- %-inhibition at 1 µmol/L, RON [5, 20]: 7%
- %-inhibition at 1 µmol/L, CK2α1/β [6, 21]: -11%
- %-inhibition CDK5/p25 [7, 22]: -5%
- %-inhibition at 1 µmol/L, IRR [8, 23]: 12%
- %-inhibition AurB [9, 24]: -1.1%
- %-inhibition CDK2/CycA2 [10, 25]: -12%
- %-inhibition CDK2/CycE1 [10, 26]: -8%
- %-inhibition at 1 µmol/L, GSK3α [11, 27]: 2.24%
- %-inhibition at 1 µmol/L, PKCβ1 [12, 28]: -3%
- %-inhibition CaMK1δ [13, 29]: 5%
- %-inhibition CDC7/ASK [14, 30]: -1%
- %-inhibition at 1 µmol/L, LYNa [15, 31]: 99%

Structure (SMILES): C=CC(=O)Nc1cc(Nc2nccc(-c3cn(C)c4ccccc34)n2)c(OC)cc1N(C)CCN(C)C [osimertinib]
- %-inhibition CaMK2δ [1, 16]: 19%
- %-inhibition at 1 µmol/L, PKD1 [2, 17]: 22%
- %-inhibition at 1 µmol/L, DDR1 [3, 18]: 46%
- %-inhibition at 1 µmol/L, PDGFRβ [4, 19]: 87%
- %-inhibition at 1 µmol/L, RON [5, 20]: 5.69%
- %-inhibition at 1 µmol/L, CK2α1/β [6, 21]: 12%
- %-inhibition CDK5/p25 [7, 22]: -0.719%
- %-inhibition at 1 µmol/L, IRR [8, 23]: 77%
- %-inhibition AurB [9, 24]: -1.24%
- %-inhibition CDK2/CycA2 [10, 25]: -6%
- %-inhibition CDK2/CycE1 [10, 26]: 24%
- %-inhibition at 1 µmol/L, GSK3α [11, 27]: 15%
- %-inhibition at 1 µmol/L, PKCβ1 [12, 28]: 9%
- %-inhibition CaMK1δ [13, 29]: 9%
- %-inhibition CDC7/ASK [14, 30]: 1.64%
- %-inhibition at 1 µmol/L, LYNa [15, 31]: 0.63%
